Source: patent US10456441B2, “Augmenting the immune response by promoting cell death of immune cells” (The University of Vermont and State Agricultural College, priority 2014, dated 2019)
Blank lines part the entries; values can stand above or below the compound they belong to.

Tests used:
[1] = human trials; cited from earlier work
BMDC = experiment: Cell death of BMDC by TUNEL assay; assay type: cell-based, mice; conditions: GM-CSF-cultured BMDC, zVAD 50 μM + Necrostatin 50 μM
Experimental: (§1) The preparation of bone marrow-derived dendritic cells (BMDC) was done according to the method of Lutz et al. (26) using GM-CSF ([…] PeproTech, Rocky Hill N.J.) or GM-CSF plus IL-4 (10 μg/ml, PeproTech). Cells were used on day 7.
(§2) Cell death was examined by terminal deoxynucleotidyl transferase dUTP nick end labeling (TUNEL). Briefly, cells were stained for expression of cell surface molecules, and then fixed with 1% methanol-free formaldehyde followed by 70% ethanol. After washing, the TUNEL reaction was performed by incubating cells in 50 μl of reaction mix containing 10 units of terminal deoxribosyl transferase (TdT), 2.5 mM cobalt chloride in 1× TdT buffer, and 0.2 pmol/μl of FITC-dUTP (Roche, Indianapolis, Ind.) at 37° C. for 1 hour. The cells were washed twice and fixed in 1% methanol-free formaldehyde. Murine thymocytes were included as a positive control for apoptotic cells. Flow cytometry was performed on an LSRII (BD Biosciences, San Jose, Calif.) calibrated with compensation beads (BD Biosciences). Analysis was performed using FlowJo software (Tree Star, Inc., Ashland, Oreg.).

γδ T cells = experiment: Mixed cultures of γδ T cells and BMDC: γδ T cell activation (IL-17, IFN-γ, CD25); assay type: cell-based, mice
Experimental: Cells were washed three times and then rocked with goat anti-rat conjugated magnetic beads at a 10:1 ratio of beads to cell at 4° C. for 45 min. Magnetic depletion was used to remove bead-bound cells. […] After 2 days, cells were removed from anti-TCR-γδ stimulation, supplied with fresh medium plus IL-2, and returned to culture at a density of 0.3×10^6 cells/ml. Cells were counted daily and supplied with fresh media containing 50 units/ml IL-2. […] In addition, in some experiments freshly isolated splenic γδ T cells were prepared using anti-γδ-coated magnetic beads (Miltenyi Biotec) and magnet purification.
as §1
Day 7 γδ T cells and BMDC were cultured either individually or together at a 1:1 ratio (10^6 cells/ml each). To some cultures the following reagents were added: a sonicate of Borrelia burgdorferi (10 μg/ml), zVAD-fmk (MP Biomedical, Santa Ana Calif.) at the doses indicated, necrostatin (50 μM, R&D Systems, Minneapolis, Minn.), anti-TNF-α (10 μg/ml, Calbiochem, Darnstadt, Germany),, anti-IL-1 Receptor antagonist, Anakinra (200 ng/ml, Amgen, Thousand Oaks, Calif.), anti-IL-12 (10 μg/ml, BioLegend San Diego, Calif.), anti-IL-18 (10 μg/ml, MBL, Woburn Mass.), or rat IgG (10 μg/ml Jackson Immunoresearch, West Grove Pa.). Transwell assays were performed using 1×10^6 γδ T cells in 1 ml of complete medium+IL-2 placed in the lower chamber, with 5×10^5 DC in 100 μl placed in the upper chamber. […]
Cytokine levels of IFN-γ, IL-1β, IL-12p40, IL-12p70, IL-17, and TNF-α were detected using the Bio-Plex, MilliPlex, or Luminex immunoassay (Bio-Rad; Millipore-EMD; R&D Systems, Minneapolis, Minn.) according to the manufacturer's protocol. Briefly, samples were run undiluted or diluted 1:10 in RPMI complete media. 50 μl of the magnetic bead working solution was added to each well, then 50 μl of appropriate samples or standards were then added to wells and incubated at room temperature for 30-120 min at 800 rpm on an IKA MS 3 digital shaker. After three washes with 100 μl Bio-Plex wash buffer, incubation with 25 μl of detection antibody solution was done at room temperature for 30-60 min on the shaker. Following another set of three washes, 50 μl of streptavidin-phycoerythrin (PE) in assay buffer was added to each well and incubated as described for the previous step. After an additional three washes, 125 μl of assay buffer was added. Sample data was analyzed with Bio-Plex Manager software.
The following monoclonal antibodies to murine cell surface molecules were purchased from BioLegend: PE-conjugated anti-CD25, APC-conjugated anti-TCR-γδ, and TNF-α neutralizing antibody. Rat IgG was purchased from Jackson Immunoresearch (West Grove, Pa.). For direct staining, single cell suspensions (1×10^6 total cells per staining condition) were washed with cold (4° C.) PBS containing 1% (w/v) BSA fraction V (Sigma) (PBS/1% BSA), incubated with unconjugated rat IgG (50 μg/ml) for 15 min at 4° C., washed again, and then incubated with the appropriate antibodies in PBS/1% BSA. After washing, the cells were fixed with freshly made 1% (v/v) methanol-free formaldehyde (Ted Pella Inc., Redding, Calif.) in PBS/1% BSA.

human DC = experiment: Cell death of human DC from peripheral blood monocytes; assay type: cell-based; conditions: addition of IL-4 to GM-CSF culture
Experimental: as §2, with “Human monocytes were obtained as […] cells by magnetic bead purification (Miltenyi Biotech, Auburn, Calif.) from peripheral blood of healthy volunteers. Myeloid DC were prepared by culture of monocytes in AIM V media plus 10% fetal calf serum (HyClone) with 800 U/ml of granulocyte-macrophage colony-stimulating factor (GM-CSF), (BioLegend, San Diego, Calif.) without or with 500 U/ml IL-4 (BioLegend). Cell” for “Cell”

c-FLIP, caspase-8 = biological target: T1, c-FLIP, caspase-8 (Mus musculus, UniProt O89110); experiment: c-FLIP and active caspases in BMDC (biotin-VAD precipitation, immunoblot); assay type: cell-based, mice
T1 construct: endogenous in cells; host or cells: bone marrow-derived dendritic cells (BMDC), day 7, grown in GM-CSF with or without IL-4; whole cell lysates and biotin-VAD precipitates
T1 sequence (O89110 219-480): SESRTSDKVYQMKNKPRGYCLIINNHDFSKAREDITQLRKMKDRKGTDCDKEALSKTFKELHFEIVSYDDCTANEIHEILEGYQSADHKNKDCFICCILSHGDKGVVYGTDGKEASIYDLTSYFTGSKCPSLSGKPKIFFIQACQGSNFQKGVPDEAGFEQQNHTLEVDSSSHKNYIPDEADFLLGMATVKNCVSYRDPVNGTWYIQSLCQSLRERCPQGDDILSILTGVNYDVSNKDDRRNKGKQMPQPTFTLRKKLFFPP
T1 sequence (O35732 whole entry partner): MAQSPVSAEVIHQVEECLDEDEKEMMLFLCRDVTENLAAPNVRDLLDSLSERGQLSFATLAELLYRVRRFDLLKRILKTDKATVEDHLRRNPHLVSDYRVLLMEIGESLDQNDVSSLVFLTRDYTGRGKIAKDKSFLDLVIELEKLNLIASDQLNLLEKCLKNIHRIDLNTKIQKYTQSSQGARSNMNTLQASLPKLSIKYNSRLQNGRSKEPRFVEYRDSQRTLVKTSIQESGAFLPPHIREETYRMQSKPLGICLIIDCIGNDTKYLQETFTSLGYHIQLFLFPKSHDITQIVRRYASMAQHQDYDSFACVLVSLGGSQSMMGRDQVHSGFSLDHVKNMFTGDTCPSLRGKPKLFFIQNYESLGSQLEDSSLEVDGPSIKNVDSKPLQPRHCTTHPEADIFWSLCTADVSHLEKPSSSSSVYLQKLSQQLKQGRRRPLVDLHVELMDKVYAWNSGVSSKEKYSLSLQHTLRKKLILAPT
Experimental: as §1
Day 7 BMDC were lysed in Tris-buffer containing Complete Protease Inhibitor (Roche), 0.2% NP-40 (Roche), and biotin-VAD-fmk (10 μM, MP Biomedicals, Santa Ana, Calif.). Insoluble cell fragments were removed by centrifugation, and the protein concentration of the resulting whole cell lysates was determined by Bradford assay (BioRad, Hercules, Calif.). Whole cell lysates (30 μg per lane) were separated by SDS-PAGE. Precipitation of active caspases was performed by rocking 600 μg of whole cell lysates initially with sepharose 4B beads (Sigma) at 4° C. for 2 hours to remove nonspecific binding of proteins to the beads, followed by overnight rocking incubation with streptavidin-conjugated sepharose beads (Invitrogen) at 4° C. Release of biotin-VAD-fmk-labeled caspases from the streptavidin beads was achieved by heating to 95° C. for 10 min in Laemmli buffer. After gel electrophoresis, proteins were transferred to PVDF membranes (0.2 μm pore size, Bio-Rad), and immunoblots were performed using antibodies (1 μg/ml) against caspase-3, caspase-8 (both Cell Signaling, Danvers, Mass.), caspase-9 (Stressgen, Farmingdale, N.Y.), and RIPK1 (BD Biosciences).

[2] = γδ T cells + BMDC + B. burgdorferi, zVAD+Necrostatin, 20 h
[3] = exogenous TNF-α (2.5 μg/ml) added, absence of Borrelia

Compound: C[C@H](NC(=O)C(=O)Nc1ccccc1C(C)(C)C)C(=O)N[C@@H](CC(=O)O)C(=O)COc1c(F)c(F)cc(F)c1F [IDN-6556]
preserving liver function during hepatitis C virus infection [1]: showing promise
serious side-effects [1]: without exhibiting serious side-effects

Compound: CN1C(=O)C(Cc2c[nH]c3ccccc23)NC1=S (centres unmarked) [Necrostatin]
cell death of zVAD-treated BMDC (BMDC): rescued them from cell death
production of these cytokines (TNF-α, IL-17, IFN-γ); toxicity check (γδ T cells; Necrostatin with Borrelia in the absence of zVAD): did not block production
TNF-α production by zVAD-treated BMDC (γδ T cells; [2]): reversed
production of IFN-γ by γδ T cells (γδ T cells; [2]): reversed
production of IL-17 by γδ T cells (γδ T cells; [2]): reversed

level of c-FLIP (c-FLIP, caspase-8; BMDC grown in GM-CSF+IL-4 vs GM-CSF, 7 days): considerably increased
levels of total cellular caspase-8, caspase-9, or caspase-3 (c-FLIP, caspase-8; whole cell lysates, BMDC grown in GM-CSF or GM-CSF+IL-4): no difference
Compound: IL-4: cytokine added with GM-CSF during generation of BMDC; upregulates c-FLIP
zVAD-induced death of human DC (human DC): blocked
level of active caspase-8 (c-FLIP, caspase-8; BMDC grown in GM-CSF+IL-4 vs GM-CSF, bVAD precipitates): increase in the level of active caspase-8
ability of BMDC to activate Borrelia-stimulated γδ T cells (γδ T cells; BMDC grown with GM-CSF+IL-4, absence or presence of zVAD): much less able to activate

Compound: TNF-α
production of IFNγ by γδ T cells (γδ T cells; [3]): did not augment production
production of IL-17 by γδ T cells (γδ T cells; [3]): did not augment production
